These molecules were tested against T1, BTK (Homo sapiens, UniProt Q06187) (assay: BTK degradation in TMD-8 cells, HTRF assay after 6 h treatment). Details: IC50 (DC50) of BTK degradation.
T1 construct: endogenous in cells; host or cells: TMD-8 cells
Type: cell-based
Procedure, shortened: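 TMD-8 cells treated for 6 h with 8 compound doses in 6-fold dilution steps from a 1 mM 500× DMSO stock (0.2% DMSO), then lysed 30 min at room temperature. BTK in lysate detected by HTRF (665/620 nm) after overnight antibody incubation; DC50 from four-parameter curve fit.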

T1 sequence (Q06187 whole entry): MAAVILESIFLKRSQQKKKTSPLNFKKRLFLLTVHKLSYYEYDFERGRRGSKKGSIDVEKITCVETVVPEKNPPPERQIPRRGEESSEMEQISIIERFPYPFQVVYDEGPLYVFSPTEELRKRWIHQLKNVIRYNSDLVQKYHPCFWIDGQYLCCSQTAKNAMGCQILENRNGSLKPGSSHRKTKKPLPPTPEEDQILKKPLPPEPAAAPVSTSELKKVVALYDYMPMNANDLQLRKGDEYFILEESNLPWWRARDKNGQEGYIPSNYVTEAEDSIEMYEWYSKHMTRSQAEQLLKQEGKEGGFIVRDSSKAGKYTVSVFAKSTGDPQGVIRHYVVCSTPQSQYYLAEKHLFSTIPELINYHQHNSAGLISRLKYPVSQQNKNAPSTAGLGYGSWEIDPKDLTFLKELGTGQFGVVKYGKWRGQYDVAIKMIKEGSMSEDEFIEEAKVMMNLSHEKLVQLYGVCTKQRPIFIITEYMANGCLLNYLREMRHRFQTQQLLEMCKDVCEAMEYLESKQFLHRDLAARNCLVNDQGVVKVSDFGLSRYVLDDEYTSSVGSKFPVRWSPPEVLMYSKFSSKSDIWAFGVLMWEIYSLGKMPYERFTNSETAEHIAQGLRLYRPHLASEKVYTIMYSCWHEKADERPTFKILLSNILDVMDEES

Row | DC50 [nM] | SMILES
1 | 6.13 | COc1nc(CCN2CCN(c3ccc(-c4cnc5[nH]nc(-c6ccc([C@@H](C)NC(=O)c7nc(C(C)(C)C)no7)c(C)c6)c5c4)cc3)CC2)ccc1C1CCC(=O)NC1=O (stereo partly drawn) [Example 195, 3-(tert-butyl)-N-((1R)-1-(4-(5-(4-(4-(2-(5-(2,6-dioxopiperidin-3-yl)-6-methoxypyridin-2-yl)ethyl)piperazin-1-yl)phenyl)-1H-pyrazolo[3,4-b]pyridin-3-yl)-2-methylphenyl)ethyl)-1,2,4-oxadiazole-5-carboxamide]
2 | 1.05 | Cc1cc(-c2n[nH]c3ncc(-c4ccc(N5CCN(CCn6nc(C)c(C7CCC(=O)NC7=O)c6C)CC5)cc4)cc23)ccc1[C@@H](C)NC(=O)c1nc(C(C)(C)C)no1 (stereo partly drawn) [Example 196, 3-(tert-butyl)-N-((1R)-1-(4-(5-(4-(4-(2-(4-(2,6-dioxopiperidin-3-yl)-3,5-dimethyl-1H-pyrazol-1-yl)ethyl)piperazin-1-yl)phenyl)-1H-pyrazolo[3,4-b]pyridin-3-yl)-2-methylphenyl)ethyl)-1,2,4-oxadiazole-5-carboxamide]
3 | 1.08 | Cc1cc(-c2n[nH]c3ncc(-c4ccc(C5CCN(C6CC(c7ccc(C8CCC(=O)NC8=O)cc7)C6)CC5)nc4)cc23)ccc1[C@@H](C)NC(=O)c1noc(C(C)(C)C)n1 (stereo partly drawn) [Example 197, 5-(tert-butyl)-N-((1R)-1-(4-(5-(6-(1-(3-(4-(2,6-dioxopiperidin-3-yl)phenyl)cyclobutyl)piperidin-4-yl)pyridin-3-yl)-1H-pyrazolo[3,4-b]pyridin-3-yl)-2-methylphenyl)ethyl)-1,2,4-oxadiazole-3-carboxamide]
4 | 91.4 | Cc1cc(-c2n[nH]c3ncc(-c4ccc(N5CCC(COc6ccc(OC7CCC(=O)NC7=O)cc6)CC5)cc4)cc23)ccc1[C@@H](C)NC(=O)c1noc(C(C)(C)C)n1 (stereo partly drawn) [Example 198, 5-(tert-butyl)-N-((1R)-1-(4-(5-(4-(4-((4-((2,6-dioxopiperidin-3-yl)oxy)phenoxy)methyl)piperidin-1-yl)phenyl)-1H-pyrazolo[3,4-b]pyridin-3-yl)-2-methylphenyl)ethyl)-1,2,4-oxadiazole-3-carboxamide]
5 | 5.09 | Cc1cc(-c2n[nH]c3ncc(-c4ccc(N5CCN(CCc6ccc(C7CCC(=O)NC7=O)c(F)c6)CC5)nc4)cc23)ccc1[C@@H](C)NC(=O)c1noc(C(C)(C)C)n1 (stereo partly drawn) [Example 199, 5-(tert-butyl)-N-((1R)-1-(4-(5-(6-(4-(4-(2,6-dioxopiperidin-3-yl)-3-fluorophenethyl)piperazin-1-yl)pyridin-3-yl)-1H-pyrazolo[3,4-b]pyridin-3-yl)-2-methylphenyl)ethyl)-1,2,4-oxadiazole-3-carboxamide]
6 | 1.79 | Cc1cc(-c2n[nH]c3ncc(-c4ccc(C5(O)CCN(CC6CCN(c7ccc(N8CCC(=O)NC8=O)cc7)CC6)CC5)cc4)cc23)ccc1[C@@H](C)NC(=O)c1nc(C(C)(C)C)no1 [Example 201, (R)-3-(tert-butyl)-N-(1-(4-(5-(4-(1-((1-(4-(2,4-dioxotetrahydropyrimidin-1(2H)-yl)phenyl)piperidin-4-yl)methyl)-4-hydroxypiperidin-4-yl)phenyl)-1H-pyrazolo[3,4-b]pyridin-3-yl)-2-methylphenyl)ethyl)-1,2,4-oxadiazole-5-carboxamide]
7 | 9.04 | Cc1cc(-c2n[nH]c3ncc(-c4ccc(N5CCCN(CC6CCN(c7ccc(N8CCC(=O)NC8=O)cc7)CC6)CC5)cc4)cc23)ccc1[C@@H](C)NC(=O)c1nc(C(C)(C)C)no1 [Example 202, (R)-3-(tert-butyl)-N-(1-(4-(5-(4-(4-((1-(4-(2,4-dioxotetrahydropyrimidin-1(2H)-yl)phenyl)piperidin-4-yl)methyl)-1,4-diazepan-1-yl)phenyl)-1H-pyrazolo[3,4-b]pyridin-3-yl)-2-methylphenyl)ethyl)-1,2,4-oxadiazole-5-carboxamide]

Reference: patent US20230322761A1, “DEGRADATION OF BRUTON'S TYROSINE KINASE (BTK) BY CONJUGATION OF BTK INHIBITORS WITH E3 LIGASE LIGAND AND METHODS OF USE” (BEIGENE, LTD., priority 2020, published 2023)
